This passage reports T/C results from PubChem BioAssay AID330 (DTP/NCI, 2004).

The assay relates to P388 leukemia ip, CD2F1 mice, survival T/C. Kind of assay: NCI In Vivo Anticancer Drug Screen. Data for tumor model P388 Leukemia (intraperitoneal) in CD2F1 (CDF1) mice. As to conditions: endpoint: median survival time, higher = longer survival. In outline: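 Mice carrying the transplanted tumor received test compound or vehicle. Survival was recorded in each group, and the value is the treated-group measurement divided by that of the vehicle-treated control group.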

[1] abbreviates: dose: 60.0 mg/kg/injection, schedule: Q01DX005 (ip), vehicle: saline with Tween-80.
[2] abbreviates: dose: 120.0 mg/kg/injection, schedule: Q01DX005 (ip), vehicle: saline with Tween-80.
The mark [3] stands for this setting: dose: 240.0 mg/kg/injection, schedule: Q01DX005 (ip), vehicle: saline with Tween-80.
The mark [4] stands for this setting: dose: 50.0 mg/kg/injection, schedule: Q01DX005 (ip), vehicle: saline.
[5] abbreviates: dose: 50.0 mg/kg/injection, schedule: Q01DX009 (ip), vehicle: saline with Tween-80.
Where [6] appears, read: dose: 100.0 mg/kg/injection, schedule: Q01DX009 (ip), vehicle: saline with Tween-80.
Setting [7] is: dose: 200.0 mg/kg/injection, schedule: Q01DX009 (ip), vehicle: saline with Tween-80.
Where [8] appears, read: dose: 60.0 mg/kg/injection, schedule: Q01DX005 (ip), vehicle: Klucel (hydroxypropylcellulose) (HPC).
Setting [9] is: dose: 120.0 mg/kg/injection, schedule: Q01DX005 (ip), vehicle: Klucel (hydroxypropylcellulose) (HPC).
Where [10] appears, read: dose: 240.0 mg/kg/injection, schedule: Q01DX005 (ip), vehicle: Klucel (hydroxypropylcellulose) (HPC).

Values joined by “and” are separate entries in the source; they are usually repeats but may differ in a detail not shown here. Equal entries are not always repeated. Toxic doses and inconclusive results are not listed.

With `CCCCCCCC1SC(=S)NC1=O` (stereo not given), the T/C was 109 % of control (dose: 6.25 mg/kg/injection, schedule: Q04DX003 (ip), vehicle: other); 101 % of control (dose: 12.5 mg/kg/injection, schedule: Q04DX003 (ip), vehicle: other); 108 % of control (dose: 25.0 mg/kg/injection, schedule: Q04DX003 (ip), vehicle: other); 108 % of control (dose: 50.0 mg/kg/injection, schedule: Q04DX003 (ip), vehicle: other); 101 % of control (dose: 100.0 mg/kg/injection, schedule: Q04DX003 (ip), vehicle: other).
Regarding `O=C1NC2(CN3CCC2CC3)C(=O)N1CN(Cc1ccccc1)c1ccccc1` (stereo not given), the T/C under setting [1] was 99 % of control, the T/C under setting [2] is 99 % of control and the T/C under setting [3] was 99 % of control.
Take `CC(C)(C)OC(=O)N1CCCC1C(=O)O` (stereo not given): the T/C was 100 % of control (dose: 50.0 mg/kg/injection, schedule: Q01DX005 (ip), vehicle: Klucel (hydroxypropylcellulose) (HPC)); 106 % of control (dose: 100.0 mg/kg/injection, schedule: Q01DX005 (ip), vehicle: Klucel (hydroxypropylcellulose) (HPC)); 99 % of control (dose: 200.0 mg/kg/injection, schedule: Q01DX005 (ip), vehicle: Klucel (hydroxypropylcellulose) (HPC)).
Turning to `CC(=O)CC1C=CCC(CC(O)c2ccccc2)N1C` (stereo not given), the T/C is 100 % of control (dose: 12.5 mg/kg/injection, schedule: Q01DX005 (ip), vehicle: saline); 105 % of control (dose: 25.0 mg/kg/injection, schedule: Q01DX005 (ip), vehicle: saline); 105 % of control under setting [4].
Take `COC(=O)/C=C/C=C/c1ccco1`: the T/C reads like this: under setting [5], 99 % of control; under setting [6], 87 % of control; under setting [7], 89 % of control.
Take `CCC1(O)C(=O)OCc2c1cc1n(c2=O)Cc2cc3ccccc3nc2-1` (stereo not given): the T/C is 150 % of control and 153 % of control (dose: 2.0 mg/kg/injection, schedule: Q04DX003 (ip), vehicle: other); 167 % of control and 178 % of control (dose: 4.0 mg/kg/injection, schedule: Q04DX003 (ip), vehicle: other); 222 % of control and 229 % of control (dose: 8.0 mg/kg/injection, schedule: Q04DX003 (ip), vehicle: other); 118 % of control (dose: 16.0 mg/kg/injection, schedule: Q04DX003 (ip), vehicle: other).
Regarding `CCN1NC1C` (stereo not given), the T/C was 105 % of control under setting [4]; 97 % of control (dose: 100.0 mg/kg/injection, schedule: Q01DX005 (ip), vehicle: saline); 97 % of control (dose: 200.0 mg/kg/injection, schedule: Q01DX005 (ip), vehicle: saline).
Regarding `[O-][n+]1cc2ccccc2c2ccccc21`, the T/C was 100 % of control (dose: 100.0 mg/kg/injection, schedule: Q04DX003 (ip), vehicle: saline); 100 % of control (dose: 200.0 mg/kg/injection, schedule: Q04DX003 (ip), vehicle: saline); 99 % of control (dose: 400.0 mg/kg/injection, schedule: Q04DX003 (ip), vehicle: saline).
Turning to `CCCCc1c(OC)cc(O)c2c1C(=O)c1[nH]c(C(=O)O)c(O)c(=O)c1C2=O`, the T/C runs as follows: (dose: 7.5 mg/kg/injection, schedule: Q01DX009 (ip), vehicle: Klucel (hydroxypropylcellulose) (HPC)) 98 % of control; (dose: 15.0 mg/kg/injection, schedule: Q01DX009 (ip), vehicle: Klucel (hydroxypropylcellulose) (HPC)) 100 % of control; (dose: 30.0 mg/kg/injection, schedule: Q01DX009 (ip), vehicle: Klucel (hydroxypropylcellulose) (HPC)) 95 % of control.
For `COc1ccc(C)c2c(NCCCCCCCCNc3c4ccccc4nc4c(OC)ccc(C)c34)c3ccccc3nc12`, the T/C (dose: 2.5 mg/kg/injection, schedule: Q01DX009 (ip), vehicle: water) was 100 % of control; the T/C (dose: 5.0 mg/kg/injection, schedule: Q01DX009 (ip), vehicle: water) was 113 % of control; the T/C (dose: 10.0 mg/kg/injection, schedule: Q01DX009 (ip), vehicle: water) is 105 % of control.
Take `CCCNC(C)(C)C(SS)c1ccc(C(F)(F)F)cc1` (stereo not given): the T/C (dose: 12.5 mg/kg/injection, schedule: Q01DX009 (ip), vehicle: other) was 100 % of control; the T/C (dose: 25.0 mg/kg/injection, schedule: Q01DX009 (ip), vehicle: other) is 100 % of control; the T/C (dose: 50.0 mg/kg/injection, schedule: Q01DX009 (ip), vehicle: other) was 109 % of control.
As for `Cc1ccc(N2C(=O)C(C)SC2=S)cc1Cl` (stereo not given), the T/C is 100 % of control (dose: 12.5 mg/kg/injection, schedule: Q01DX009 (ip), vehicle: saline); 100 % of control (dose: 25.0 mg/kg/injection, schedule: Q01DX009 (ip), vehicle: saline); 101 % of control and 103 % of control (dose: 50.0 mg/kg/injection, schedule: Q01DX009 (ip), vehicle: saline); 91 % of control (dose: 200.0 mg/kg/injection, schedule: Q01DX009 (ip), vehicle: saline).
As to `O=C(O)c1c(Cl)nc2n1CCS2`, the T/C is, setting by setting: (dose: 50.0 mg/kg/injection, schedule: Q01DX001 (ip), vehicle: Klucel (hydroxypropylcellulose) (HPC)) 97 % of control; (dose: 100.0 mg/kg/injection, schedule: Q01DX001 (ip), vehicle: Klucel (hydroxypropylcellulose) (HPC)) 101 % of control; (dose: 200.0 mg/kg/injection, schedule: Q01DX001 (ip), vehicle: Klucel (hydroxypropylcellulose) (HPC)) 104 % of control.
For `O=C1CN(C2CCCCC2Br)C(=O)CN1C1CCCCC1Br` (stereo not given), the T/C was 97 % of control under setting [8], 94 % of control under setting [9] and 96 % of control under setting [10].
For `NS(=O)(=O)c1ccc(NC(=O)C2C(=O)N(c3ccc(S(N)(=O)=O)cc3)C(=O)/C2=N/O)cc1` (stereo not given), the T/C runs as follows: under setting [1], 111 % of control; under setting [2], 110 % of control; under setting [3], 101 % of control.
On to `CC(C)OC(=O)CC1NS(=O)(=O)c2ccccc21` (stereo not given), for which the T/C is 103 % of control (dose: 50.0 mg/kg/injection, schedule: Q01DX005 (ip), vehicle: suspension in saline); 103 % of control (dose: 100.0 mg/kg/injection, schedule: Q01DX005 (ip), vehicle: suspension in saline); 100 % of control (dose: 200.0 mg/kg/injection, schedule: Q01DX005 (ip), vehicle: suspension in saline).
As to `CN(C)C=C1C(=O)CCCC1=O`, the T/C by setting is: (dose: 60.0 mg/kg/injection, schedule: Q01DX005 (ip), vehicle: saline) 105 % of control; (dose: 120.0 mg/kg/injection, schedule: Q01DX005 (ip), vehicle: saline) 117 % of control.
On to `CCOC1OCN(c2ccccc2)CC1(C)C` (stereo not given), for which the T/C under setting [5] was 115 % of control; the T/C under setting [6] is 114 % of control; the T/C under setting [7] was 108 % of control; the T/C (dose: 400.0 mg/kg/injection, schedule: Q01DX009 (ip), vehicle: saline with Tween-80) is 117 % of control.
For `CC1(C)CC2C[C@H]3CC[C@@H]4O[C@]34C2[C@H]1OC(=O)/C=C/c1ccccc1` (stereo not given in full), the T/C (dose: 74.5 mg/kg/injection, schedule: Q01DX001 (ip), vehicle: saline with Tween-80) is 100 % of control; the T/C (dose: 149.0 mg/kg/injection, schedule: Q01DX001 (ip), vehicle: saline with Tween-80) is 99 % of control; the T/C (dose: 298.0 mg/kg/injection, schedule: Q01DX001 (ip), vehicle: saline with Tween-80) was 99 % of control.
As to `N=C(N)c1ccc(NC(=O)c2cc3ccc(C(=N)N)cc3o2)cc1`, the T/C (dose: 12.5 mg/kg/injection, schedule: Q04DX003 (ip), vehicle: saline) was 101 % of control; the T/C (dose: 25.0 mg/kg/injection, schedule: Q04DX003 (ip), vehicle: saline) is 101 % of control; the T/C (dose: 50.0 mg/kg/injection, schedule: Q04DX003 (ip), vehicle: saline) is 102 % of control.
In the case of `CCN1/C(=C/C2=C([O-])C(=C\c3ccc4ccccc4[n+]3CC)/C2=O)C=Cc2ccccc21`, the T/C under setting [8] is 101 % of control, the T/C under setting [9] was 97 % of control and the T/C under setting [10] is 86 % of control.
For the compound `CC1([CH2][Hg][Cl])Cc2ccccc2O1` (stereo not given), the T/C by setting is: (dose: 0.78 mg/kg/injection, schedule: Q01DX009 (ip), vehicle: saline with Tween-80) 91 % of control; (dose: 1.56 mg/kg/injection, schedule: Q01DX009 (ip), vehicle: saline with Tween-80) 95 % of control; (dose: 3.13 mg/kg/injection, schedule: Q01DX009 (ip), vehicle: saline with Tween-80) 86 % of control.
